US20210122730A1, “GLUCOCORTICOID RECEPTOR MODULATORS” (ORIC Pharmaceuticals, Inc., priority 2017, published 2021)

Key:
GR = molecular target: T1, GR (Homo sapiens, UniProt P04150); experiment: In Vitro GR Luciferase Reporter Assay (antagonist mode, CHO-K1-GR-MMTV-Luc reporter cells); assay type: cell-based; conditions: antagonist mode, 10 nM Dexamethasone
T1 construct: expressed in transfected cells; host or cells: CHO-K1
T1 sequence (P04150 1-777): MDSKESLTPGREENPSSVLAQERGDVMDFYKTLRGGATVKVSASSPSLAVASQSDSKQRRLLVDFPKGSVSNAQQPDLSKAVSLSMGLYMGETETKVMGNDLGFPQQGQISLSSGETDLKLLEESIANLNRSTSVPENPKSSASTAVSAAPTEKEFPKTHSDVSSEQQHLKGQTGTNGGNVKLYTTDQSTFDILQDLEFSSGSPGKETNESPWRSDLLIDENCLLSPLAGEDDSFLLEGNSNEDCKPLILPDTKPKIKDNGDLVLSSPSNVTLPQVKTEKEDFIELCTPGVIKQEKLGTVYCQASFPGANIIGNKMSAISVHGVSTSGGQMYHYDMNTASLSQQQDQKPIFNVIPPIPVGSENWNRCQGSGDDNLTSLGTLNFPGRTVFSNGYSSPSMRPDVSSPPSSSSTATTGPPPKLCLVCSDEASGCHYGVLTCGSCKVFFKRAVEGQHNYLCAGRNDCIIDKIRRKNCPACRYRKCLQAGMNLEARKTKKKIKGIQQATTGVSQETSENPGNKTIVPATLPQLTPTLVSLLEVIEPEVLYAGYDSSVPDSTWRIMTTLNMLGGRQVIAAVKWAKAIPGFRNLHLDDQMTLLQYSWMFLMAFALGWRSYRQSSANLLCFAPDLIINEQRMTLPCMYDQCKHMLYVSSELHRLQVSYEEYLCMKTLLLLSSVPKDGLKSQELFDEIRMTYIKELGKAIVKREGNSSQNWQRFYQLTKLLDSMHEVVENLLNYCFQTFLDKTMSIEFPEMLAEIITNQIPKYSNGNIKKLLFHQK
Method in brief: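 CHO-K1-GR-MMTV-Luc cells in phenol red-free DMEM with 10% CSS, stimulated with 10 nM dexamethasone (final) and treated with 8-point 1:5 compound dilutions for about 18-24 h at 37° C. Luciferase measured by OneGlo luminescence; IC50 derived for inhibition of GR activity.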

CYP2C8 = molecular target: T2, CYP2C8 (Homo sapiens, UniProt P10632); experiment: CYP Inhibition Assay (CYP2C8, human liver microsomes, paclitaxel substrate); assay type: in vitro ADME; conditions: pH 7.4; pooled human liver microsomes 0.1 mg/mL, probe substrate paclitaxel
T2 construct: Pooled human microsomes were obtained from Sekisui XenoTech, KS; tissue Sekisui XenoTech, KS; host or cells: pooled human liver microsomes
T2 sequence (P10632 1-490): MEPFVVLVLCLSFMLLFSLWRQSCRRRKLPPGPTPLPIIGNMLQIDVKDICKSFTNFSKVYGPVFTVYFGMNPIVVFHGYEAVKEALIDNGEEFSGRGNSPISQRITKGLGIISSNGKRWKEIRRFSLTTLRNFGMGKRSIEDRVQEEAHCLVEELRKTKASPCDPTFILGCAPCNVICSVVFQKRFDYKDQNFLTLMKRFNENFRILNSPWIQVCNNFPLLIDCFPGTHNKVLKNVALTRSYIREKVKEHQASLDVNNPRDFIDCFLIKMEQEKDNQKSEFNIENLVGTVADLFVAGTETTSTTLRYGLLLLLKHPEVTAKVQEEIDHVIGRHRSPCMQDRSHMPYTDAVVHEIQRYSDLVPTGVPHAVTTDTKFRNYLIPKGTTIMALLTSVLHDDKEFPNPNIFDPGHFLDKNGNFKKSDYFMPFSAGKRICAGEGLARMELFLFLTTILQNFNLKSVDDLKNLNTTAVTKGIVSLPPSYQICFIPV
Method in brief: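 Pooled human liver microsomes (0.1 mg/mL) in 50 mM potassium phosphate pH 7.4 with compound, started with 1 mM NADPH, 5 min at 37° C, duplicate.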

Compound	IC50 (GR) [nM]	inhibition at 5 min (CYP2C8) [%]
Cn1ncc(S(=O)(=O)N(CC2CC2)[C@H]2CCC3=Cc4c(cnn4-c4ccc(F)cc4)C[C@]3(C(=O)c3ncc(C(F)(F)F)s3)C2)n1 [Example 194, N-(cyclopropylmethyl)-N-((4aS,6S)-1-(4-fluorophenyl)-4a-(5-(trifluoromethyl)thiazole-2-carbonyl)-4,4a,5,6,7,8-hexahydro-1H-benzo[f]indazol-6-yl)-2-methyl-2H-1,2,3-triazole-4-sulfonamide]	≤ 100	50 to 75
Cn1ccc(S(=O)(=O)N(CC(C)(C)O)[C@H]2CCC3=Cc4c(cnn4-c4ccc(F)cc4)C[C@]3(C(=O)c3cc(C(F)(F)F)ccn3)C2)n1 [Example 195, N-((4aS,6S)-1-(4-fluorophenyl)-4a-(4-(trifluoromethyl)picolinoyl)-4,4a,5,6,7,8-hexahydro-1H-benzo[f]indazol-6-yl)-N-(2-hydroxy-2-methylpropyl)-1-methyl-1H-pyrazole-3-sulfonamide]	≤ 100	25 to 50
Cn1ccc(S(=O)(=O)N(C2COC2)[C@H]2CCC3=Cc4c(cnn4-c4ccc(F)cc4)C[C@]3(C(=O)c3ncc(C(F)(F)F)s3)C2)n1 [Example 196, N-((4aS,6S)-1-(4-fluorophenyl)-4a-(5-(trifluoromethyl)thiazole-2-carbonyl)-4,4a,5,6,7,8-hexahydro-1H-benzo[f]indazol-6-yl)-1-methyl-N-(oxetan-3-yl)-1H-pyrazole-3-sulfonamide]	≤ 100	50 to 75
Cn1ccc(S(=O)(=O)N(C2COC2)[C@H]2CCC3=Cc4c(cnn4-c4ccc(F)cc4)C[C@]3(C(=O)c3cc(C(F)(F)F)ccn3)C2)n1 [Example 198, N-((4aS,6S)-1-(4-fluorophenyl)-4a-(4-(trifluoromethyl)picolinoyl)-4,4a,5,6,7,8-hexahydro-1H-benzo[f]indazol-6-yl)-1-methyl-N-(oxetan-3-yl)-1H-pyrazole-3-sulfonamide]	≤ 100	25 to 50
CCN([C@H]1CCC2=Cc3c(cnn3-c3ccc(F)cc3)C[C@]2(C(=O)c2ncc(C(F)(F)F)s2)C1)S(=O)(=O)c1ccn(C)n1 [Example 199, N-ethyl-N-((4aS,6S)-1-(4-fluorophenyl)-4a-(5-(trifluoromethyl)thiazole-2-carbonyl)-4,4a,5,6,7,8-hexahydro-1H-benzo[f]indazol-6-yl)-1-methyl-1H-pyrazole-3-sulfonamide]	≤ 100	75 to 90
Cn1cnc(S(=O)(=O)N(C2CC2)[C@H]2CCC3=Cc4c(cnn4-c4ccc(F)cc4)C[C@]3(C(=O)c3ncc(C(F)(F)F)s3)C2)c1 [Example 201, N-cyclopropyl-N-((4aS,6S)-1-(4-fluorophenyl)-4a-(5 (trifluoromethyl)thiazole-2-carbonyl)-4,4a,5,6,7,8-hexahydro-1H-benzo[f]indazol-6-yl)-1-methyl-1H-imidazole-4-sulfonamide]	≤ 100	≤ 25
Cn1cc(S(=O)(=O)[C@@]2(F)CCC3=Cc4c(cnn4-c4ccc(F)cc4)C[C@]3(C(=O)c3cc(C(F)(F)F)ccn3)C2)cn1 [Example 202, ((4aS,6S)-6-fluoro-1-(4-fluorophenyl)-6-((1-methyl-1H-pyrazol-4-yl)sulfonyl)-1,4,5,6,7,8-hexahydro-4aH-benzo[f]indazol-4a-yl)(4-(trifluoromethyl)pyridin-2-yl)methanone]	≤ 100	25 to 50
Cn1ccc(S(=O)(=O)N(C2CCC2)[C@H]2CCC3=Cc4c(cnn4-c4ccc(F)cc4)C[C@]3(C(=O)c3ncc(C(F)(F)F)s3)C2)n1 [Example 203, N-cyclobutyl-N-((4aS,6S)-1-(4-fluorophenyl)-4a-(5 (trifluoromethyl)thiazole-2-carbonyl)-4,4a,5,6,7,8-hexahydro-1H-benzo[f]indazol-6-yl)-1-methyl-1H-pyrazole-3-sulfonamide]	≤ 100	25 to 50
O=C(c1cc(C(F)(F)F)ccn1)[C@]12Cc3cnn(-c4ccc(F)cc4)c3C=C1CC[C@H](N(C1COC1)S(=O)(=O)c1ccc(F)cc1)C2 [Example 204, 4-fluoro-N-((4aS,6S)-1-(4-fluorophenyl)-4a-(4-(trifluoromethyl)picolinoyl)-4,4a,5,6,7,8-hexahydro-1H-benzo[f]indazol-6-yl)-N-(oxetan-3-yl)benzenesulfonamide]	≤ 100	25 to 50
Cn1ccc(S(=O)(=O)N(C2CCC2)[C@H]2CCC3=Cc4c(cnn4-c4ccc(F)cc4)C[C@]3(C(=O)c3cc(C(F)(F)F)ccn3)C2)n1 [Example 206, N-cyclobutyl-N-((4aS,6S)-1-(4-fluorophenyl)-4a-(4-(trifluoromethyl)picolinoyl)-4,4a,5,6,7,8-hexahydro-1H-benzo[f]indazol-6-yl)-1-methyl-1H-pyrazole-3-sulfonamide]	≤ 100	25 to 50
CC(C)N([C@H]1CCC2=Cc3c(cnn3-c3ccc(F)cc3)C[C@]2(C(=O)c2cc(C(F)(F)F)ccn2)C1)S(=O)(=O)c1ccc(F)cc1 [Example 210, 4-fluoro-N-((4aS,6S)-1-(4-fluorophenyl)-4a-(4-(trifluoromethyl)picolinoyl)-4,4a,5,6,7,8-hexahydro-1H-benzo[f]indazol-6-yl)-N-isopropylbenzenesulfonamide]	≤ 100	75 to 90
CC(C)CN([C@H]1CCC2=Cc3c(cnn3-c3ccc(F)cc3)C[C@]2(C(=O)c2ncc(C(F)(F)F)s2)C1)S(=O)(=O)c1ccn(C)n1 [Example 212, N-((4aS,6S)-1-(4-fluorophenyl)-4a-(5-(trifluoromethyl)thiazole-2-carbonyl)-4,4a,5,6,7,8-hexahydro-1H-benzo[f]indazol-6-yl)-N-isobutyl-1-methyl-1H-pyrazole-3-sulfonamide]	≤ 100	25 to 50
CCN([C@H]1CCC2=Cc3c(cnn3-c3ccc(F)cc3)C[C@]2(C(=O)c2cc(C(F)(F)F)ccn2)C1)S(=O)(=O)c1cn(C)cn1 [Example 214, N-ethyl-N-((4aS,6S)-1-(4-fluorophenyl)-4a-(4-(trifluoromethyl)picolinoyl)-4,4a,5,6,7,8-hexahydro-1H-benzo[f]indazol-6-yl)-1-methyl-1H-imidazole-4-sulfonamide]	≤ 100	≤ 25
CC(C)CN([C@H]1CCC2=Cc3c(cnn3-c3ccc(F)cc3)C[C@]2(C(=O)c2cc(C(F)(F)F)ccn2)C1)S(=O)(=O)c1ccn(C)n1 [Example 215, N-((4aS,6S)-1-(4-fluorophenyl)-4a-(4-(trifluoromethyl)picolinoyl)-4,4a,5,6,7,8-hexahydro-1H-benzo[f]indazol-6-yl)-N-isobutyl-1-methyl-1H-pyrazole-3-sulfonamide]	≤ 100	50 to 75
CCN([C@H]1CCC2=Cc3c(cnn3-c3ccc(F)cc3)C[C@]2(C(=O)c2ncc(C(F)(F)F)s2)C1)S(=O)(=O)c1cn(C)cn1 [Example 216, N-ethyl-N-((4aS,6S)-1-(4-fluorophenyl)-4a-(5-(trifluoromethyl)thiazole-2-carbonyl)-4,4a,5,6,7,8-hexahydro-1H-benzo[f]indazol-6-yl)-1-methyl-1H-imidazole-4-sulfonamide]	≤ 100	25 to 50
Cn1cnc(S(=O)(=O)N(CC2CC2)[C@H]2CCC3=Cc4c(cnn4-c4ccc(F)cc4)C[C@]3(C(=O)c3ncc(C(F)(F)F)s3)C2)c1 [Example 217, N-(cyclopropylmethyl)-N-((4aS,6S)-1-(4-fluorophenyl)-4a-(5-(trifluoromethyl)thiazole-2-carbonyl)-4,4a,5,6,7,8-hexahydro-1H-benzo[f]indazol-6-yl)-1-methyl-1H-imidazole-4-sulfonamide]	≤ 100	25 to 50
